Several values for one entry are separate records, joined by “and”; a condition that tells them apart may be missing. Equal values may be shown once.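 Assay format: 96-well plates, 48-hour exposure. At the GI50, growth is halved. TGI is the concentration that stops growth completely.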
How the values were obtained:
Test in all cases: NCI tumour cell line growth inhibition, 48 h
MOLT-4 leukemia = tested on: MOLT-4 leukemia
SF-539 CNS = tested on: SF-539 CNS
LOX IMVI melanoma = tested on: LOX IMVI melanoma
IGROV1 ovarian = tested on: IGROV1 ovarian
OVCAR-3 ovarian = tested on: OVCAR-3 ovarian
SW-620 colon = tested on: SW-620 colon
UACC-257 melanoma = tested on: UACC-257 melanoma
SNB-19 CNS = tested on: SNB-19 CNS
NCI/ADR-RES ovarian = tested on: NCI/ADR-RES ovarian
SR leukemia = tested on: SR leukemia
HOP-92 NSCLC = tested on: HOP-92 NSCLC
SN12C renal = tested on: SN12C renal
ACHN renal = tested on: ACHN renal
TK-10 renal = tested on: TK-10 renal
UACC-62 melanoma = tested on: UACC-62 melanoma
U251 CNS = tested on: U251 CNS
UO-31 renal = tested on: UO-31 renal
HCT-15 colon = tested on: HCT-15 colon
K-562 leukemia = tested on: K-562 leukemia
SK-MEL-28 melanoma = tested on: SK-MEL-28 melanoma
HT29 colon = tested on: HT29 colon
RPMI-8226 leukemia = tested on: RPMI-8226 leukemia
T-47D breast = tested on: T-47D breast
OVCAR-5 ovarian = tested on: OVCAR-5 ovarian
MDA-MB-231 breast = tested on: MDA-MB-231 breast
DU-145 prostate = tested on: DU-145 prostate
RXF 393 renal = tested on: RXF 393 renal
KM12 colon = tested on: KM12 colon
CCRF-CEM leukemia = tested on: CCRF-CEM leukemia
SK-OV-3 ovarian = tested on: SK-OV-3 ovarian
HCC-2998 colon = tested on: HCC-2998 colon
HL-60(TB) leukemia = tested on: HL-60(TB) leukemia
NCI-H460 lung = tested on: NCI-H460 lung
HS 578T breast = tested on: HS 578T breast
786-0 renal = tested on: 786-0 renal
COLO 205 colon = tested on: COLO 205 colon
OVCAR-4 ovarian = tested on: OVCAR-4 ovarian
A498 renal = tested on: A498 renal
BT-549 breast = tested on: BT-549 breast
MCF7 breast = tested on: MCF7 breast
SK-MEL-2 melanoma = tested on: SK-MEL-2 melanoma
HCT-116 colon = tested on: HCT-116 colon
OVCAR-8 ovarian = tested on: OVCAR-8 ovarian
EKVX NSCLC = tested on: EKVX NSCLC
MDA-MB-435 = tested on: MDA-MB-435
SF-295 CNS = tested on: SF-295 CNS
SK-MEL-5 melanoma = tested on: SK-MEL-5 melanoma
A549 NSCLC = tested on: A549 NSCLC
PC-3 prostate = tested on: PC-3 prostate
M14 melanoma = tested on: M14 melanoma
CAKI-1 renal = tested on: CAKI-1 renal
NCI-H23 lung = tested on: NCI-H23 lung
HOP-62 NSCLC = tested on: HOP-62 NSCLC
SF-268 CNS = tested on: SF-268 CNS

## CCCCCCCCCCCCCCCCCCn1cc[n+](C)c1
MOLT-4 leukemia
  GI50: 0.189 µM and 0.65 µM
SF-539 CNS
  GI50: 1.06 µM
  TGI: 2.4 µM
LOX IMVI melanoma
  GI50: 0.189 µM and 0.406 µM
  TGI: 0.479 µM and 1.75 µM
IGROV1 ovarian
  GI50: 0.253 µM and 0.516 µM
OVCAR-3 ovarian
  GI50: 0.366 µM
  TGI: 1.27 µM
SW-620 colon
  GI50: 0.624 µM
  TGI: 1.96 µM
UACC-257 melanoma
  GI50: 1.53 µM
  TGI: 3.91 µM
SNB-19 CNS
  GI50: 1.22 µM and 1.18 µM
  TGI: 3.57 µM and 2.42 µM
NCI/ADR-RES ovarian
  GI50: 1.58 µM
  TGI: 5.47 µM
SR leukemia
  GI50: 1.24 µM
  TGI: > 100 µM
HOP-92 NSCLC
  GI50: 0.35 µM
  TGI: 2.62 µM
SN12C renal
  GI50: 1.07 µM and 0.826 µM
  TGI: 2.47 µM and 2.3 µM
ACHN renal
  GI50: 0.54 µM and 0.69 µM
  TGI: 2.04 µM and 2.03 µM
TK-10 renal
  GI50: 0.47 µM and 0.26 µM
  TGI: 1.97 µM and 1.44 µM
UACC-62 melanoma
  GI50: 1.04 µM
  TGI: 2.3 µM
U251 CNS
  GI50: 0.372 µM and 0.397 µM
  TGI: 1.51 µM
UO-31 renal
  GI50: 1.03 µM
  TGI: 2.41 µM
HCT-15 colon
  GI50: 0.689 µM and 0.888 µM
  TGI: 2 µM and 2.34 µM
K-562 leukemia
  GI50: 0.385 µM and 0.312 µM
  TGI: > 100 µM
SK-MEL-28 melanoma
  GI50: 1.01 µM and 1.15 µM
  TGI: 2.41 µM and 2.59 µM
HT29 colon
  GI50: 0.403 µM and 0.358 µM
  TGI: 1.64 µM and 1.45 µM
RPMI-8226 leukemia
  GI50: 0.0268 µM
  TGI: 0.233 µM
T-47D breast
  GI50: 0.403 µM and 0.433 µM
  TGI: 2.96 µM and 3.31 µM
OVCAR-5 ovarian
  GI50: 0.605 µM
  TGI: 2 µM
MDA-MB-231 breast
  GI50: 1.08 µM
  TGI: 2.52 µM
DU-145 prostate
  GI50: 0.801 µM and 0.87 µM
  TGI: 2.06 µM and 2.1 µM
RXF 393 renal
  GI50: 0.451 µM
  TGI: 1.54 µM
KM12 colon
  GI50: 0.275 µM
  TGI: 0.879 µM
CCRF-CEM leukemia
  GI50: 0.127 µM and 0.458 µM
SK-OV-3 ovarian
  GI50: 1.23 µM and 1.1 µM
  TGI: 4.14 µM and 2.62 µM
HCC-2998 colon
  GI50: 0.303 µM and 0.192 µM
  TGI: 1.26 µM and 0.913 µM
HL-60(TB) leukemia
  GI50: 0.143 µM and 0.293 µM
  TGI: 0.336 µM and 1.67 µM
NCI-H460 lung
  GI50: 0.521 µM and 0.659 µM
  TGI: 1.8 µM and 2.11 µM
HS 578T breast
  GI50: 0.335 µM
  TGI: 1.8 µM
786-0 renal
  GI50: 0.952 µM
  TGI: 3.32 µM
COLO 205 colon
  GI50: 0.35 µM
  TGI: 1.28 µM
OVCAR-4 ovarian
  GI50: 0.645 µM and 0.518 µM
A498 renal
  GI50: 1.07 µM
  TGI: 3.09 µM
BT-549 breast
  GI50: 1.17 µM
  TGI: 2.71 µM
MCF7 breast
  GI50: 0.513 µM and 1 µM
  TGI: 1.79 µM and 2.35 µM

## COc1ccc(-c2nc(-c3ccc(C)cc3)cn3ccnc23)cc1
MOLT-4 leukemia
  GI50: 22.3 µM
  TGI: > 50 µM
SF-539 CNS
  GI50: 5.73 µM
  TGI: 31 µM
SK-MEL-2 melanoma
  GI50: 20.8 µM
  TGI: > 50 µM
LOX IMVI melanoma
  GI50: 3.43 µM
  TGI: 13.8 µM
IGROV1 ovarian
  GI50: 2.43 µM
  TGI: > 50 µM
OVCAR-3 ovarian
  GI50: 4.46 µM
  TGI: > 50 µM
SW-620 colon
  GI50: 2.8 µM
  TGI: > 50 µM
UACC-257 melanoma
  GI50: 9.54 µM
  TGI: 25.8 µM
SNB-19 CNS
  GI50: 13.8 µM
  TGI: > 50 µM
NCI/ADR-RES ovarian
  GI50: 2.16 µM
  TGI: > 50 µM
SR leukemia
  GI50: 0.3 µM
  TGI: > 50 µM
HOP-92 NSCLC
  GI50: 16.2 µM
  TGI: > 50 µM
SN12C renal
  GI50: 6.12 µM
  TGI: > 50 µM
ACHN renal
  GI50: 7.58 µM
  TGI: > 50 µM
TK-10 renal
  GI50: 20.6 µM
  TGI: > 50 µM
UACC-62 melanoma
  GI50: 4.39 µM
  TGI: > 50 µM
U251 CNS
  GI50: 3.42 µM
  TGI: > 50 µM
HCT-116 colon
  GI50: 2.61 µM
  TGI: > 50 µM
UO-31 renal
  GI50: 12 µM
  TGI: > 50 µM
HCT-15 colon
  GI50: 2.56 µM
  TGI: > 50 µM
K-562 leukemia
  GI50: 0.815 µM
  TGI: 3.92 µM
OVCAR-8 ovarian
  GI50: > 5 µM
  TGI: > 5 µM
RPMI-8226 leukemia
  GI50: 2.89 µM
  TGI: > 50 µM
T-47D breast
  GI50: > 50 µM
  TGI: > 50 µM
EKVX NSCLC
  GI50: 4.38 µM
  TGI: > 50 µM
MDA-MB-435
  GI50: 1.76 µM
  TGI: > 50 µM
OVCAR-5 ovarian
  GI50: 28.9 µM
  TGI: > 50 µM
MDA-MB-231 breast
  GI50: 4.24 µM
  TGI: 38.8 µM
DU-145 prostate
  GI50: 6.11 µM
  TGI: > 50 µM
RXF 393 renal
  GI50: 2.41 µM
  TGI: 18.5 µM
SF-295 CNS
  GI50: 3.69 µM
  TGI: > 50 µM
SK-MEL-5 melanoma
  GI50: 1.68 µM
  TGI: 5.2 µM
KM12 colon
  GI50: 3.25 µM
  TGI: > 50 µM
A549 NSCLC
  GI50: 3.97 µM
  TGI: > 50 µM
PC-3 prostate
  GI50: 4.44 µM
  TGI: > 50 µM
CCRF-CEM leukemia
  GI50: 5.47 µM
  TGI: > 50 µM
SK-OV-3 ovarian
  GI50: 33.5 µM
  TGI: > 50 µM
HCC-2998 colon
  GI50: 11.8 µM
  TGI: > 50 µM
HL-60(TB) leukemia
  GI50: 2.58 µM
  TGI: > 50 µM
NCI-H460 lung
  GI50: 2.53 µM
  TGI: 20.1 µM
HS 578T breast
  GI50: 20.4 µM
  TGI: > 50 µM
M14 melanoma
  GI50: 3.23 µM
  TGI: > 50 µM
CAKI-1 renal
  GI50: 4.78 µM
  TGI: > 50 µM
786-0 renal
  GI50: 8.6 µM
  TGI: 45.6 µM
NCI-H23 lung
  GI50: > 50 µM
  TGI: > 50 µM
COLO 205 colon
  GI50: 2.87 µM
  TGI: > 50 µM
BT-549 breast
  GI50: 26.4 µM
  TGI: > 50 µM
HOP-62 NSCLC
  GI50: 13.9 µM
  TGI: > 50 µM
MCF7 breast
  GI50: 3.05 µM
  TGI: > 50 µM
SF-268 CNS
  GI50: 3.06 µM
  TGI: > 50 µM

Source: PubChem BioAssay (NCI)
